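In this assay, cells in 96-well plates receive the compound at five concentrations for 48 hours. Endpoints are linearly interpolated between the surrounding concentrations. Definition used: TGI = concentration required for complete inhibition of growth.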
Columns and labels:
Experiment in all cases: growth of human tumour cells (NCI), 48 h
SF-268 CNS = test system: SF-268 CNS
HOP-92 NSCLC = test system: HOP-92 NSCLC
SW-620 colon = test system: SW-620 colon
K-562 leukemia = test system: K-562 leukemia
SN12C renal = test system: SN12C renal
SNB-19 CNS = test system: SNB-19 CNS
CCRF-CEM leukemia = test system: CCRF-CEM leukemia
RPMI-8226 leukemia = test system: RPMI-8226 leukemia
MDA-MB-435 = test system: MDA-MB-435
HCT-116 colon = test system: HCT-116 colon
SF-295 CNS = test system: SF-295 CNS
PC-3 prostate = test system: PC-3 prostate
U251 CNS = test system: U251 CNS
NCI-H522 lung = test system: NCI-H522 lung
LOX IMVI melanoma = test system: LOX IMVI melanoma
NCI-H23 lung = test system: NCI-H23 lung
SK-OV-3 ovarian = test system: SK-OV-3 ovarian
RXF 393 renal = test system: RXF 393 renal
COLO 205 colon = test system: COLO 205 colon
T-47D breast = test system: T-47D breast
MALME-3M melanoma = test system: MALME-3M melanoma
OVCAR-4 ovarian = test system: OVCAR-4 ovarian
OVCAR-5 ovarian = test system: OVCAR-5 ovarian
786-0 renal = test system: 786-0 renal
HOP-62 NSCLC = test system: HOP-62 NSCLC
NCI-H460 lung = test system: NCI-H460 lung
OVCAR-8 ovarian = test system: OVCAR-8 ovarian
UO-31 renal = test system: UO-31 renal
HS 578T breast = test system: HS 578T breast
HCC-2998 colon = test system: HCC-2998 colon
HT29 colon = test system: HT29 colon
CAKI-1 renal = test system: CAKI-1 renal
EKVX NSCLC = test system: EKVX NSCLC
BT-549 breast = test system: BT-549 breast
HCT-15 colon = test system: HCT-15 colon
MDA-N = test system: MDA-N
DU-145 prostate = test system: DU-145 prostate
MOLT-4 leukemia = test system: MOLT-4 leukemia
KM12 colon = test system: KM12 colon
HL-60(TB) leukemia = test system: HL-60(TB) leukemia
NCI/ADR-RES ovarian = test system: NCI/ADR-RES ovarian
MDA-MB-231 breast = test system: MDA-MB-231 breast
OVCAR-3 ovarian = test system: OVCAR-3 ovarian
IGROV1 ovarian = test system: IGROV1 ovarian
UACC-257 melanoma = test system: UACC-257 melanoma
SK-MEL-5 melanoma = test system: SK-MEL-5 melanoma
TK-10 renal = test system: TK-10 renal
SF-539 CNS = test system: SF-539 CNS
M14 melanoma = test system: M14 melanoma
SR leukemia = test system: SR leukemia
A549 NSCLC = test system: A549 NSCLC
SK-MEL-28 melanoma = test system: SK-MEL-28 melanoma
ACHN renal = test system: ACHN renal
SK-MEL-2 melanoma = test system: SK-MEL-2 melanoma
NCI-H226 lung = test system: NCI-H226 lung
A498 renal = test system: A498 renal
UACC-62 melanoma = test system: UACC-62 melanoma

Question: What does the source list for `O=CN(CCN1CCCC1)C1CCc2cc(Cl)c(Cl)cc2C1` (stereo not given)?
Answer: TGI (SF-268 CNS): > 100 µM; TGI (HOP-92 NSCLC): > 100 µM; TGI (SW-620 colon): > 100 µM; TGI (K-562 leukemia): 51.6 µM; TGI (SN12C renal): > 100 µM; TGI (SNB-19 CNS): 75 µM; TGI (CCRF-CEM leukemia): 43.9 µM; TGI (RPMI-8226 leukemia): 45.3 µM; TGI (MDA-MB-435): 28.6 µM; TGI (HCT-116 colon): 24.9 µM; TGI (SF-295 CNS): 19 µM; TGI (PC-3 prostate): 28.9 µM; TGI (U251 CNS): 24.6 µM; TGI (NCI-H522 lung): 23 µM; TGI (LOX IMVI melanoma): 27.3 µM; TGI (NCI-H23 lung): 60 µM; TGI (SK-OV-3 ovarian): 29 µM; TGI (RXF 393 renal): 28.8 µM; TGI (COLO 205 colon): 37.8 µM; TGI (T-47D breast): 41.3 µM; TGI (MALME-3M melanoma): 27.3 µM; TGI (OVCAR-4 ovarian): > 100 µM; TGI (OVCAR-5 ovarian): 40.7 µM; TGI (786-0 renal): 19.9 µM; TGI (HOP-62 NSCLC): 34.9 µM; TGI (NCI-H460 lung): 21.4 µM; TGI (OVCAR-8 ovarian): 48.6 µM; TGI (UO-31 renal): 27.1 µM; TGI (HS 578T breast): 42.3 µM; TGI (HCC-2998 colon): 31.2 µM; TGI (HT29 colon): 18.2 µM; TGI (CAKI-1 renal): 53.8 µM; TGI (EKVX NSCLC): > 100 µM; TGI (BT-549 breast): 27.7 µM; TGI (HCT-15 colon): 31.8 µM; TGI (MDA-N): 23.4 µM; TGI (DU-145 prostate): > 100 µM; TGI (MOLT-4 leukemia): 55 µM; TGI (KM12 colon): 20.9 µM; TGI (HL-60(TB) leukemia): 37.2 µM; TGI (NCI/ADR-RES ovarian): 61.2 µM; TGI (MDA-MB-231 breast): 26.1 µM; TGI (OVCAR-3 ovarian): 30.6 µM; TGI (IGROV1 ovarian): 97.6 µM; TGI (UACC-257 melanoma): 30.5 µM; TGI (SK-MEL-5 melanoma): 42 µM; TGI (TK-10 renal): 34.8 µM; TGI (SF-539 CNS): 48.2 µM; TGI (M14 melanoma): 29.3 µM; TGI (SR leukemia): 60.7 µM; TGI (A549 NSCLC): 23.2 µM

Question: For `CC(C)(Cl)C(Br)CCC(C)(Br)C(Br)CBr` (stereo not given), which TGI (SF-268 CNS) is on record?
Answer: The TGI was 32.6 µM.

Question: What about the TGI (HOP-92 NSCLC) of the same compound?
Answer: The TGI was 48.6 µM.

Question: And the TGI (SW-620 colon)?
Answer: The TGI was 31.4 µM.

Question: What about the TGI (K-562 leukemia) of the same compound?
Answer: Its TGI is over 100 µM.

Question: And the TGI (SN12C renal)?
Answer: Its TGI is 35.8 µM.

Question: And the TGI (SNB-19 CNS)?
Answer: Its TGI is 54.6 µM.

Question: What about the TGI (CCRF-CEM leukemia) of the same compound?
Answer: Its TGI is 28.7 µM.

Question: What about the TGI (RPMI-8226 leukemia) of the same compound?
Answer: The TGI was 40.1 µM.

Question: And the TGI (MDA-MB-435)?
Answer: Its TGI is 35.3 µM.

Question: What about the TGI (HCT-116 colon) of the same compound?
Answer: Its TGI is 29.5 µM.

Question: What about the TGI (SF-295 CNS) of the same compound?
Answer: Its TGI is 32.8 µM.

Question: And the TGI (PC-3 prostate)?
Answer: The TGI was 64.7 µM.

Question: What about the TGI (U251 CNS) of the same compound?
Answer: The TGI was 30.1 µM.

Question: And the TGI (NCI-H522 lung)?
Answer: The TGI was 26.5 µM.

Question: And the TGI (NCI-H23 lung)?
Answer: The TGI was 38.6 µM.

Question: What about the TGI (SK-OV-3 ovarian) of the same compound?
Answer: The TGI was over 100 µM.

Question: What about the TGI (RXF 393 renal) of the same compound?
Answer: Its TGI is 38 µM.

Question: What about the TGI (COLO 205 colon) of the same compound?
Answer: Its TGI is 31 µM.

Question: And the TGI (T-47D breast)?
Answer: Its TGI is 46.4 µM.

Question: And the TGI (MALME-3M melanoma)?
Answer: The TGI was 31.8 µM.

Question: And the TGI (OVCAR-4 ovarian)?
Answer: The TGI was 37.5 µM.

Question: And the TGI (OVCAR-5 ovarian)?
Answer: The TGI was 31.2 µM.

Question: What about the TGI (SK-MEL-28 melanoma) of the same compound?
Answer: The TGI was 33.6 µM.

Question: And the TGI (786-0 renal)?
Answer: The TGI was 31.2 µM.

Question: And the TGI (HOP-62 NSCLC)?
Answer: The TGI was 32.5 µM.

Question: And the TGI (NCI-H460 lung)?
Answer: The TGI was 31.1 µM.

Question: What about the TGI (OVCAR-8 ovarian) of the same compound?
Answer: Its TGI is 29.7 µM.

Question: What about the TGI (UO-31 renal) of the same compound?
Answer: The TGI was 36.1 µM.

Question: And the TGI (HS 578T breast)?
Answer: Its TGI is 46.5 µM.

Question: What about the TGI (ACHN renal) of the same compound?
Answer: The TGI was 31.9 µM.

Question: And the TGI (SK-MEL-2 melanoma)?
Answer: Its TGI is 30.3 µM.

Question: What about the TGI (HCC-2998 colon) of the same compound?
Answer: The TGI was 25.8 µM.

Question: And the TGI (HT29 colon)?
Answer: Its TGI is 29.2 µM.

Question: And the TGI (EKVX NSCLC)?
Answer: Its TGI is 70.3 µM.

Question: And the TGI (BT-549 breast)?
Answer: The TGI was 42.8 µM.

Question: And the TGI (HCT-15 colon)?
Answer: Its TGI is 42.6 µM.

Question: What about the TGI (MDA-N) of the same compound?
Answer: The TGI was 43.1 µM.

Question: What about the TGI (DU-145 prostate) of the same compound?
Answer: The TGI was 39.2 µM.

Question: What about the TGI (MOLT-4 leukemia) of the same compound?
Answer: Its TGI is 53.4 µM.

Question: What about the TGI (KM12 colon) of the same compound?
Answer: Its TGI is 36 µM.

Question: And the TGI (NCI-H226 lung)?
Answer: Its TGI is 39.3 µM.

Question: What about the TGI (HL-60(TB) leukemia) of the same compound?
Answer: The TGI was 36.5 µM.

Question: And the TGI (NCI/ADR-RES ovarian)?
Answer: The TGI was 31.6 µM.

Question: And the TGI (MDA-MB-231 breast)?
Answer: Its TGI is 25.9 µM.

Question: What about the TGI (OVCAR-3 ovarian) of the same compound?
Answer: Its TGI is 29.9 µM.

Question: What about the TGI (IGROV1 ovarian) of the same compound?
Answer: The TGI was 39.9 µM.

Question: What about the TGI (UACC-257 melanoma) of the same compound?
Answer: Its TGI is 37.5 µM.

Question: And the TGI (SK-MEL-5 melanoma)?
Answer: The TGI was 28 µM.

Question: What about the TGI (TK-10 renal) of the same compound?
Answer: Its TGI is 62.2 µM.

Question: What about the TGI (SF-539 CNS) of the same compound?
Answer: The TGI was 29 µM.

Question: And the TGI (A498 renal)?
Answer: Its TGI is 34.8 µM.

Question: And the TGI (M14 melanoma)?
Answer: The TGI was 33.7 µM.

Question: What about the TGI (UACC-62 melanoma) of the same compound?
Answer: The TGI was 48.3 µM.

Question: What about the TGI (A549 NSCLC) of the same compound?
Answer: Its TGI is 92.2 µM.
